Data taken from ChEMBL document CHEMBL4507310, “Data for DCP probe A-1211212” (2021).

Legend:
[1] = target: T1, 5-hydroxytryptamine receptor 2C (Homo sapiens) (UniProt P28335); conditions: Compound concentration 10.0 uM
T1 sequence (whole entry): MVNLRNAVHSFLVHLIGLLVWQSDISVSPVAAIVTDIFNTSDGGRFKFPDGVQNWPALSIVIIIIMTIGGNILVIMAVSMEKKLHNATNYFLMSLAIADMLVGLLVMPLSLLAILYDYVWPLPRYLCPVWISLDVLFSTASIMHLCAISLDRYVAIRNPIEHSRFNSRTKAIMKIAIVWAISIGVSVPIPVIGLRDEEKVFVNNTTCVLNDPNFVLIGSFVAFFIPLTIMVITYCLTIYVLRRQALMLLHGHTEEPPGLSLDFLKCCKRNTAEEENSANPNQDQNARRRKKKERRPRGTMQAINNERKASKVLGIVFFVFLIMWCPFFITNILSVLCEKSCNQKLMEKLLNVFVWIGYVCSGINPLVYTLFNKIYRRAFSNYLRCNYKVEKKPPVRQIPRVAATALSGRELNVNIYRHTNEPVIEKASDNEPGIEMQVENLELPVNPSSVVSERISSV

[2] = target: Dual serine/threonine and tyrosine protein kinase (Homo sapiens) (UniProt Q6XUX3); conditions: Compound concentration 1000.0 nM
[3] = target: Serine/threonine-protein kinase Nek1 (Homo sapiens) (UniProt Q96PY6); conditions: Compound concentration 1000.0 nM
[4] = tested on: Mast/stem cell growth factor receptor Kit (Homo sapiens), P10721 [L576P]; conditions: Compound concentration 1000.0 nM
[5] = target: Beta-1 adrenergic receptor (Homo sapiens) (UniProt P08588); assay: Beta1 (h) Eurofins-Cerep binding assay; parameters: ligand concentration 0.3 nM; conditions: filed as agonist, Compound concentration 10.0 uM
[6] = target: Activin receptor type-2B (Homo sapiens) (UniProt Q13705); conditions: Compound concentration 1000.0 nM
[7] = target: Death-associated protein kinase 2 (Homo sapiens) (UniProt Q9UIK4); conditions: Compound concentration 1000.0 nM
[8] = target: Interleukin-1 receptor-associated kinase 1 (Homo sapiens) (UniProt P51617); conditions: Compound concentration 1000.0 nM
[9] = target: cGMP-inhibited 3',5'-cyclic phosphodiesterase 3A (Homo sapiens) (UniProt Q14432); assay: PDE3A (h) Eurofins-Cerep enzyme and uptake assay; conditions: Compound concentration 10.0 uM
[10] = target: D(2) dopamine receptor (Homo sapiens) (UniProt P14416); assay: D2S (h) Eurofins-Cerep binding assay; parameters: ligand concentration 0.3 nM; conditions: filed as antagonist, Compound concentration 10.0 uM
[11] = target: Type-1 angiotensin II receptor (Homo sapiens) (UniProt P30556); assay: AT1 (h) Eurofins-Cerep binding assay; parameters: ligand concentration 0.05 nM; conditions: filed as antagonist, Compound concentration 10.0 uM
[12] = target: Delta-type opioid receptor (Homo sapiens) (UniProt P41143); assay: delta (DOP) (h) Eurofins-Cerep binding assay; parameters: ligand concentration 0.5 nM; conditions: filed as agonist, Compound concentration 10.0 uM
[13] = target: Translocator protein (Rattus norvegicus) (UniProt P16257); assay: BZD (peripheral) Eurofins-Cerep binding assay; parameters: ligand concentration 0.2 nM; conditions: filed as antagonist, Compound concentration 10.0 uM
[14] = target: Ribosomal protein S6 kinase alpha-4 (Homo sapiens) (UniProt O75676); conditions: Compound concentration 1000.0 nM
[15] = target: Alpha-1A adrenergic receptor (Homo sapiens) (UniProt P35348); assay: Alpha1A (h) Eurofins-Cerep binding assay; parameters: ligand concentration 0.1 nM; conditions: filed as antagonist, Compound concentration 10.0 uM
[16] = target: Kappa-type opioid receptor (Homo sapiens) (UniProt P41145); assay: kappa (h) (KOP) Eurofins-Cerep binding assay; parameters: ligand concentration 0.5 nM; conditions: filed as agonist, Compound concentration 10.0 uM
[17] = target: Focal adhesion kinase 1 (Homo sapiens) (UniProt Q05397); conditions: Compound concentration 1000.0 nM
[18] = target: Serine/threonine-protein kinase D2 (Homo sapiens) (UniProt Q9BZL6); conditions: Compound concentration 1000.0 nM
[19] = target: Tyrosine-protein kinase receptor Tie-1 (Homo sapiens) (UniProt P35590); conditions: Compound concentration 1000.0 nM
[20] = target: MAO-B (amine oxidase [flavin-containing] B) (Homo sapiens, UniProt P27338); assay: MAO-B (h) recombinant enzyme Eurofins-Cerep enzyme and uptake assay; parameters: incubation time 60 min, incubation temperature 37°C, substrate/stimulus/tracer D-Luciferin derivative (4 µM); conditions: probe D-Luciferin derivative (4 µM), compound concentration 10 uM, read-out: % Inhibition of Control Values (Mean n=2)
[21] = target: Receptor tyrosine-protein kinase erbB-3 (Homo sapiens) (UniProt P21860); conditions: Compound concentration 1000.0 nM
[22] = target: Cyclin-dependent kinase 15 (Homo sapiens) (UniProt Q96Q40); conditions: Compound concentration 1000.0 nM
[23] = target: Cyclin-dependent kinase 13 (Homo sapiens) (UniProt Q14004); conditions: Compound concentration 1000.0 nM
[24] = target: Mitogen-activated protein kinase 4 (Homo sapiens) (UniProt P31152); conditions: Compound concentration 1000.0 nM
[25] = target: Histamine H1 receptor (Homo sapiens) (UniProt P35367); assay: H1 (h) Eurofins-Cerep binding assay; parameters: ligand concentration 1 nM; conditions: filed as antagonist, Compound concentration 10.0 uM
[26] = target: Glycogen synthase kinase-3 beta (Homo sapiens) (UniProt P49841); conditions: Compound concentration 1000.0 nM
[27] = target: Bone morphogenetic protein receptor type-2 (Homo sapiens) (UniProt Q13873); conditions: Compound concentration 1000.0 nM
[28] = target: Tyrosine-protein kinase ZAP-70 (Homo sapiens) (UniProt P43403); conditions: Compound concentration 1000.0 nM
[29] = target: Serine/threonine-protein kinase TAO3 (Homo sapiens) (UniProt Q9H2K8); conditions: Compound concentration 1000.0 nM
[30] = target: Prostaglandin G/H synthase 1 (Homo sapiens) (UniProt P23219); assay: COX1(h) Eurofins-Cerep enzyme and uptake assay; conditions: Compound concentration 10.0 uM
[31] = target: Phosphorylase b kinase gamma catalytic chain, skeletal muscle/heart isoform (Homo sapiens) (UniProt Q16816); conditions: Compound concentration 1000.0 nM
[32] = target: Sodium/potassium-transporting ATPase (Sus scrofa) (UniProt P05027+P05024+D2WKD8+D2WKD7+F1ST41); assay: ATPase (Na+/K+) Eurofins-Cerep enzyme and uptake assay; assay type: protein-complex assay; conditions: Compound concentration 10.0 uM
[33] = target: Calcium/calmodulin-dependent protein kinase kinase 2 (Homo sapiens) (UniProt Q96RR4); conditions: Compound concentration 1000.0 nM
[34] = target: Serine/threonine-protein kinase WNK2 (Homo sapiens) (UniProt Q9Y3S1); conditions: Compound concentration 1000.0 nM
[35] = target: Myosin-IIIa (Homo sapiens) (UniProt Q8NEV4); conditions: Compound concentration 1000.0 nM
[36] = tested on: Tyrosine-protein kinase ABL1 (Homo sapiens), P00519 [F317I]; conditions: Compound concentration 1000.0 nM
[37] = target: Serine/threonine-protein kinase N2 (Homo sapiens) (UniProt Q16513); conditions: Compound concentration 1000.0 nM
[38] = target: Mitogen-activated protein kinase kinase kinase 20 (Homo sapiens) (UniProt Q9NYL2); conditions: Compound concentration 1000.0 nM

Sequence of Histamine H1 receptor (Homo sapiens) (P35367 whole entry): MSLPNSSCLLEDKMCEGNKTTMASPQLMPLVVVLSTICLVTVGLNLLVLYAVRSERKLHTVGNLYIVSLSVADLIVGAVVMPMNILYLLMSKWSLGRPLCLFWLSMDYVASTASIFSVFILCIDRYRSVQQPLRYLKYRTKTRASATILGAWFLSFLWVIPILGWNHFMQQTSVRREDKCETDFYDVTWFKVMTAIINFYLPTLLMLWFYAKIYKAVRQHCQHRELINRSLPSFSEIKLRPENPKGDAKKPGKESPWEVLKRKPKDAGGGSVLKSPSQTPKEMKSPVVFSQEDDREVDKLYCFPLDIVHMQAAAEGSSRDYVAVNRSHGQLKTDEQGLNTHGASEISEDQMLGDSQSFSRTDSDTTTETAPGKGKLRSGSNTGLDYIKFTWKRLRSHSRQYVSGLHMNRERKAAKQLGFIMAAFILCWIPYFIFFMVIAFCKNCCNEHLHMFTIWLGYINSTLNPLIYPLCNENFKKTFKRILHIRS
Sequence of Alpha-1A adrenergic receptor (Homo sapiens) (P35348 whole entry): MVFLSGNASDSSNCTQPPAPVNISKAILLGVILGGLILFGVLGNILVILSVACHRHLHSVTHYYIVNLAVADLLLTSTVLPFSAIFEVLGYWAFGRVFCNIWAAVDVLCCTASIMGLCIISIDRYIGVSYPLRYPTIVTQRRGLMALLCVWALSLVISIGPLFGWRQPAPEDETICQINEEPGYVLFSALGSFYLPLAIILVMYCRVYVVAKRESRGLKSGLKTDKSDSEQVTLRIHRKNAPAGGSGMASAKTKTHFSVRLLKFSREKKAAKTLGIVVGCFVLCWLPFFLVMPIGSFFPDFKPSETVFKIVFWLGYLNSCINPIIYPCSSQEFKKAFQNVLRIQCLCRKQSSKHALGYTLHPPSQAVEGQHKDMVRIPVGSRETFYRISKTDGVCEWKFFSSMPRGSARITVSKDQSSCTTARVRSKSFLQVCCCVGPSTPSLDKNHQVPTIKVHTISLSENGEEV
Sequence of Mast/stem cell growth factor receptor Kit (Homo sapiens), P10721 [L576P] (P10721 whole entry L576P): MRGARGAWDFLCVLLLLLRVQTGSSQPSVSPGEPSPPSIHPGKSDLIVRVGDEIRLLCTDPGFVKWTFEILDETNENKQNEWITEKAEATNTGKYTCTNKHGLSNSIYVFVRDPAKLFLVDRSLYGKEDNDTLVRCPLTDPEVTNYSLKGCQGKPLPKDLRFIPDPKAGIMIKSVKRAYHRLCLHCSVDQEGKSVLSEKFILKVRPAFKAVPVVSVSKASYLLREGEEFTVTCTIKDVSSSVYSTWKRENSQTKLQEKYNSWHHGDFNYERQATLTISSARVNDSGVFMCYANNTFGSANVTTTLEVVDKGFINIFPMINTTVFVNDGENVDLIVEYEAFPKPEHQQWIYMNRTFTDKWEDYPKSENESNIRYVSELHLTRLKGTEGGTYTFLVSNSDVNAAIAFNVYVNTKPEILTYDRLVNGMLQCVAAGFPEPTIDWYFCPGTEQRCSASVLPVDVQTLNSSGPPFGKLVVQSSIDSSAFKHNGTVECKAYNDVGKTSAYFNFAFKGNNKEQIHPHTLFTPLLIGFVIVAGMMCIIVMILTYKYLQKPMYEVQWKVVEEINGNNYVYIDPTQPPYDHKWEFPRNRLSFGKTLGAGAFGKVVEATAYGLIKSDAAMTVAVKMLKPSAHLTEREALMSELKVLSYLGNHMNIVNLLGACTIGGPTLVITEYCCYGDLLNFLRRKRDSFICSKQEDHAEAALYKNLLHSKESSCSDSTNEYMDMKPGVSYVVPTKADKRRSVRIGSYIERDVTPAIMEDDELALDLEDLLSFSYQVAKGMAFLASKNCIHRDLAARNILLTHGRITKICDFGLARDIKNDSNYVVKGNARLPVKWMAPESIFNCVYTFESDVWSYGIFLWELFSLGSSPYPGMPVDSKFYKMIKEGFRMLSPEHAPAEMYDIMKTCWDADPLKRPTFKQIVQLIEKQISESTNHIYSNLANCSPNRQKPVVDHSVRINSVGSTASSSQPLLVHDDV
Sequence of Cyclin-dependent kinase 15 (Homo sapiens) (Q96Q40 whole entry): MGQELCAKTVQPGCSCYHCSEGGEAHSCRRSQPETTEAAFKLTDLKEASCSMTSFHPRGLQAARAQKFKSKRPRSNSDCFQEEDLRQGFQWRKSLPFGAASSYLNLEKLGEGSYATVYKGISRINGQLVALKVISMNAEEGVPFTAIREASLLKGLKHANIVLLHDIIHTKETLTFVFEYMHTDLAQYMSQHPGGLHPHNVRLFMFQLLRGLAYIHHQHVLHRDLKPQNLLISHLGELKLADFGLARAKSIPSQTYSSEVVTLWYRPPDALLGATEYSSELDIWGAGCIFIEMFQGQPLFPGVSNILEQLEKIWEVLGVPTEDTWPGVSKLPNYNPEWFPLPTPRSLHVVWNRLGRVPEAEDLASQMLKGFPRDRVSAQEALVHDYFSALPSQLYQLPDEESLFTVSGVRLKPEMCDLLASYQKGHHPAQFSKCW
Sequence of Serine/threonine-protein kinase WNK2 (Homo sapiens) (Q9Y3S1 whole entry): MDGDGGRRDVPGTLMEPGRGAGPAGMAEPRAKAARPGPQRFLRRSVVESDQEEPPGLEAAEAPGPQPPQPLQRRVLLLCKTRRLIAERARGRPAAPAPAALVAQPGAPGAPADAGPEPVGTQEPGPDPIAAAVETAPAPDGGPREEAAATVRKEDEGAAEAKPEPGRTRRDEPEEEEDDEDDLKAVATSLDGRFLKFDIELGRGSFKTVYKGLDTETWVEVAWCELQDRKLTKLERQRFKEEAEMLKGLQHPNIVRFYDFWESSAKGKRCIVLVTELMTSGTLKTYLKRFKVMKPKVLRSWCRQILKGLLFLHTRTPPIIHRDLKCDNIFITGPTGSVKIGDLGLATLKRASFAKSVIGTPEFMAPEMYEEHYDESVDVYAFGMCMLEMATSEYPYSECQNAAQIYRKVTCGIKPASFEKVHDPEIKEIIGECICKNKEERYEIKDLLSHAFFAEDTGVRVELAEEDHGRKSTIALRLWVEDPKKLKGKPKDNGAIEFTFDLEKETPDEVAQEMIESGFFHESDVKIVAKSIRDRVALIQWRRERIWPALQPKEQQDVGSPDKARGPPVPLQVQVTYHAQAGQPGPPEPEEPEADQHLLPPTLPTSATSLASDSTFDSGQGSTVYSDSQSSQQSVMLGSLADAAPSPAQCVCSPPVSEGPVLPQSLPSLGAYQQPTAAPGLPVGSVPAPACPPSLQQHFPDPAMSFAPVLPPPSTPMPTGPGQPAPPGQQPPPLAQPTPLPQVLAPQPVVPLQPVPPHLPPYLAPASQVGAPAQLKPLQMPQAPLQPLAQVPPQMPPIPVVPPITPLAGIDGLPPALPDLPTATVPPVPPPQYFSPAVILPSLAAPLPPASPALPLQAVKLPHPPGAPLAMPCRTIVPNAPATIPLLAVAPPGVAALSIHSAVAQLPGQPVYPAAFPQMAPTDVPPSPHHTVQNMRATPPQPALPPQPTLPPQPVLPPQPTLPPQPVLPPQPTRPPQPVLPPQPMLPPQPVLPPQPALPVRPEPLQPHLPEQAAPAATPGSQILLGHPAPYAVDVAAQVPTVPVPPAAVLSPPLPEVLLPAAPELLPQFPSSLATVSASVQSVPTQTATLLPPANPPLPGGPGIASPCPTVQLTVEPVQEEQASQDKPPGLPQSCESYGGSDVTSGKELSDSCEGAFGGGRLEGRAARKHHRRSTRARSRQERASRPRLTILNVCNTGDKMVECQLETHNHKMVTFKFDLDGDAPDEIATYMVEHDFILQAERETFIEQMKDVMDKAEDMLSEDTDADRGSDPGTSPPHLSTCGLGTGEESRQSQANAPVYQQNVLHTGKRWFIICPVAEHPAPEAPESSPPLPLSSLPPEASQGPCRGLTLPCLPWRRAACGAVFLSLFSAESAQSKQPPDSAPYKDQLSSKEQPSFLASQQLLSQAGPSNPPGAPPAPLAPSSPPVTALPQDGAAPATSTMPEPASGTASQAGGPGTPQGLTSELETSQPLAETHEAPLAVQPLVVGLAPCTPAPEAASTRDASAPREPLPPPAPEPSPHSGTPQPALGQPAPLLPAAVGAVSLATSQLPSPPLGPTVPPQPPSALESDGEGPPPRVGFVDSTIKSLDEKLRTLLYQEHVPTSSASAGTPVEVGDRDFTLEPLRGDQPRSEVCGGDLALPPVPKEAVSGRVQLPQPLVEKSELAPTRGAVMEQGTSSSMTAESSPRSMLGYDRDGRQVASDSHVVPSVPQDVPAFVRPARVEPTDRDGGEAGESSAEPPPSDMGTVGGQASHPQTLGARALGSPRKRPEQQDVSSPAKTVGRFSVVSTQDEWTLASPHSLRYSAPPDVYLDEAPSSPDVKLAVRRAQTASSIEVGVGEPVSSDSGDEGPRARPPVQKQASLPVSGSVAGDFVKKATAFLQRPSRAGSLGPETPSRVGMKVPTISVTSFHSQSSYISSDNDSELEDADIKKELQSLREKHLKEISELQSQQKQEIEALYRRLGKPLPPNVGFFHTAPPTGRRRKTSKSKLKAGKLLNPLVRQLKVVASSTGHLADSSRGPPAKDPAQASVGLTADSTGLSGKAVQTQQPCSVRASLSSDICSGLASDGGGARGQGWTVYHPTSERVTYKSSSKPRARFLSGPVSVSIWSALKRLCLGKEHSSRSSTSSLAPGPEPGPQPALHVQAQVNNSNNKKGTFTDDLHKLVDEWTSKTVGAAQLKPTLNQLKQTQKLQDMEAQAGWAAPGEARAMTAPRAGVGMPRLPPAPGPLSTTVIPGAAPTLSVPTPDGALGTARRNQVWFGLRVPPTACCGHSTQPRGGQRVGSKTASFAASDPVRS
Sequence of Death-associated protein kinase 2 (Homo sapiens) (Q9UIK4 whole entry, looked up): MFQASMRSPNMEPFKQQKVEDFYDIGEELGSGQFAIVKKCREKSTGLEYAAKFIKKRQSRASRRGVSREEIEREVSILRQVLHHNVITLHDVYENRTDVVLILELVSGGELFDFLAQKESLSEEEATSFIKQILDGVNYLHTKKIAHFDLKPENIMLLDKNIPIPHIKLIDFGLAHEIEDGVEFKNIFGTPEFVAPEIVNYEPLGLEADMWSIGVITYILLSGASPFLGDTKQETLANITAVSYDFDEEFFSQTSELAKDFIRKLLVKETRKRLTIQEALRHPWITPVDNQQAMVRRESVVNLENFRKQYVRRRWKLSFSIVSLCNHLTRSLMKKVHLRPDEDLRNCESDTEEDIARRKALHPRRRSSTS

SMILES | inhibition [1] [%] | residual activity [2] [%] | residual activity [3] [%] | residual activity [4] [%] | % Inhibition of Control Specific Binding (Mean n=2) [5] [%] | residual activity [6] [%] | residual activity [7] [%] | residual activity [8] [%] | % Inhibition of Control Values (Mean n=2) [9] [%] | % Inhibition of Control Specific Binding (Mean n=2) [10] [%] | % Inhibition of Control Specific Binding (Mean n=2) [11] [%] | % Inhibition of Control Specific Binding (Mean n=2) [12] [%] | % Inhibition of Control Specific Binding (Mean n=2) [13] [%] | residual activity [14] [%] | % Inhibition of Control Specific Binding (Mean n=2) [15] [%] | % Inhibition of Control Specific Binding (Mean n=2) [16] [%] | residual activity [17] [%] | residual activity [18] [%] | residual activity [19] [%] | inhibition at 60 min, 10 µM [20] [%] | further results
O=C(NS(=O)(=O)c1ccc(NCC2CCOCC2)c([N+](=O)[O-])c1)c1ccc(N2CCN(Cc3ccc(C(F)(F)F)cc3-c3ccc(Cl)cc3)CC2)cc1Oc1cnc2[nH]ccc2c1 [A-1210227] | -0.17 | 94 | 99 | 100 | -8.2 | 94 | 85 | 96 | 6 | 15.2 | -3.9 | 7.4 | 36 | 100 | -5.1 | 23.2 | 100 | 100 | 100 | -4.3 | residual activity [21]: 100%; residual activity [22]: 100%; residual activity [23]: 63%; residual activity [24]: 97%; % Inhibition of Control Specific Binding (Mean n=2) [25]: 11.2%; residual activity [26]: 100%; residual activity [27]: 100%; residual activity [28]: 82%; residual activity [29]: 86%; % Inhibition of Control Values (Mean n=2) [30]: 3.7%; residual activity [31]: 100%; % Inhibition of Control Values (Mean n=2) [32]: 19.7%; residual activity [33]: 99%; residual activity [34]: 75%; residual activity [35]: 85%; residual activity [36]: 87%; residual activity [37]: 93%; residual activity [38]: 100%
CO[C@H]1CC[C@H](CNc2ccc(S(=O)(=O)NC(=O)c3ccc(N4CCN(CC5=C(c6ccc(Cl)cc6)CC(C)(C)CC5)CC4)cc3Oc3cnc4[nH]ccc4c3)cc2[N+](=O)[O-])CC1 [A-1211212] | -4.69 | 100 | 77 | 100 | -10.9 | 95 | 75 | 96 | 4.9 | 10.3 | 19.3 | 2.8 | 44.9 | 95 | -3.8 | 1.1 | 100 | 100 | 100 | 16.9 | residual activity [21]: 100%; residual activity [22]: 100%; residual activity [23]: 100%; residual activity [24]: 100%; % Inhibition of Control Specific Binding (Mean n=2) [25]: -2.2%; residual activity [26]: 100%; residual activity [27]: 100%; residual activity [28]: 97%; residual activity [29]: 87%; % Inhibition of Control Values (Mean n=2) [30]: 6.9%; residual activity [31]: 100%; % Inhibition of Control Values (Mean n=2) [32]: 5.4%; residual activity [33]: 81%; residual activity [34]: 76%; residual activity [35]: 82%; residual activity [36]: 100%; residual activity [37]: 97%; residual activity [38]: 100%
